Experimental data published in ChEMBL document CHEMBL1130528, “Synthesis of inhibitors of glutamyl-tRNA synthetase” (Bioorg Med Chem Lett, 1997).

Biological target: Glutamate--tRNA ligase (Escherichia coli) (UniProt P04805)
Assay: Compound was tested for the inhibition of Escherichia coli glutamyl-t-RNA synthetase; NI means No inhibition; call rule not given here

Glutamate--tRNA ligase (Escherichia coli), sequence (P04805 whole entry, looked up): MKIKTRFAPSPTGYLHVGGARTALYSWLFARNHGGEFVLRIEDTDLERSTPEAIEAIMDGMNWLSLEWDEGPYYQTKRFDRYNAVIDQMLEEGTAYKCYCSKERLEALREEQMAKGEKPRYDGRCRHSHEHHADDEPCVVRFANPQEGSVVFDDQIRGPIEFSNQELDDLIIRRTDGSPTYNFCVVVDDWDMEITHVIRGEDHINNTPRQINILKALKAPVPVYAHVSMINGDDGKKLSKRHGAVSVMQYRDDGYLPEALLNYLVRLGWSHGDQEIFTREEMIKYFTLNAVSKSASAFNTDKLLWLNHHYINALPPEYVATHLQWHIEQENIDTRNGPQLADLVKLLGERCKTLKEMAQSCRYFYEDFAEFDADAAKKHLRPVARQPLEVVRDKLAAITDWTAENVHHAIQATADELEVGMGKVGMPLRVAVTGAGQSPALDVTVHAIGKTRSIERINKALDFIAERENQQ

Ki: Not Active
SMILES: CCCCCCCCOC(=O)C(N)CCC(=O)O (stereo unspecified)
